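All cell lines were grown in 96-well plates and treated with compound for 48 hours. Here, GI50 denotes the concentration required for 50% inhibition of growth.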 Calls of active or inactive are those of the source. Rule as the data show it: active = GI50 up to about 1.1 µM and inactive = higher.
Experiments:
Assay in all cases: NCI anticancer screen, dose series, 48 h
786-0 = system: 786-0
A549 = system: A549
ACHN = system: ACHN
CAKI-1 = system: CAKI-1
CCRF-CEM = system: CCRF-CEM
COLO 205 = system: COLO 205
DLD-1 = system: DLD-1
DMS-114 = system: DMS-114
DMS-273 = system: DMS-273
EKVX = system: EKVX
HCC 2998 = system: HCC 2998
HCT-116 = system: HCT-116
HCT-15 = system: HCT-15
HL-60 = system: HL-60
HOP-18 = system: HOP-18
HOP-62 = system: HOP-62
HOP-92 = system: HOP-92
HT-29 = system: HT-29
IGROV-1 = system: IGROV-1
K562 = system: K562
KM-20L2 = system: KM-20L2
KM12 = system: KM12
LOX IMVI = system: LOX IMVI
LXFL 529 = system: LXFL 529
M14 = system: M14
M19-MEL = system: M19-MEL
MOLT-4 = system: MOLT-4
Malme-3M = system: Malme-3M
NCI-H226 = system: NCI-H226
NCI-H23 = system: NCI-H23
NCI-H460 = system: NCI-H460
NCI-H522 = system: NCI-H522
OVCAR-3 = system: OVCAR-3
OVCAR-4 = system: OVCAR-4
OVCAR-5 = system: OVCAR-5
OVCAR-8 = system: OVCAR-8
RXF 393 = system: RXF 393
SF-268 = system: SF-268
SF-295 = system: SF-295
SF-539 = system: SF-539
SK-MEL-28 = system: SK-MEL-28
SK-MEL-2 = system: SK-MEL-2
SK-MEL-5 = system: SK-MEL-5
SK-OV-3 = system: SK-OV-3
SN12C = system: SN12C
SNB-19 = system: SNB-19
SNB-78 = system: SNB-78
SR = system: SR
SW-620 = system: SW-620
TK-10 = system: TK-10
U-251 = system: U-251
UACC-257 = system: UACC-257
UACC-62 = system: UACC-62
UO-31 = system: UO-31
XF498 = system: XF498
A498 = system: A498
RPMI-8226 = system: RPMI-8226
SNB-75 = system: SNB-75

Question: Which results are given for `Cc1nc(Nc2ccccc2)sc1C(=O)CC(=O)C(=O)Nc1c(C(C)C)cccc1C(C)C`?
Answer: GI50 (786-0): > 100 µM (inactive); GI50 (A549): > 100 µM (inactive); GI50 (ACHN): 95.1 µM (inactive); GI50 (CAKI-1): 66.2 µM (inactive); GI50 (CCRF-CEM): 89.7 µM (inactive); GI50 (COLO 205): > 100 µM (inactive); GI50 (DLD-1): 87.9 µM (inactive); GI50 (DMS-114): 81.7 µM (inactive); GI50 (DMS-273): > 100 µM (inactive); GI50 (EKVX): 19.8 µM (inactive); GI50 (HCC 2998): > 100 µM (inactive); GI50 (HCT-116): > 100 µM (inactive); GI50 (HCT-15): 98.9 µM; GI50 (HL-60): 67.9 µM (inactive); GI50 (HOP-18): > 100 µM (inactive); GI50 (HOP-62): 97.7 µM (inactive); GI50 (HOP-92): 32.6 µM (inactive); GI50 (HT-29): > 100 µM (inactive); GI50 (IGROV-1): > 100 µM (inactive); GI50 (K562): 83 µM (inactive); GI50 (KM-20L2): 85.1 µM (inactive); GI50 (KM12): > 100 µM (inactive); GI50 (LOX IMVI): 43.2 µM (inactive); GI50 (LXFL 529): 60 µM (inactive); GI50 (M14): > 100 µM (inactive); GI50 (M19-MEL): > 100 µM (inactive); GI50 (MOLT-4): > 100 µM (inactive); GI50 (Malme-3M): > 100 µM (inactive); GI50 (NCI-H226): > 100 µM (inactive); GI50 (NCI-H23): 85.5 µM (inactive); GI50 (NCI-H460): > 100 µM (inactive); GI50 (NCI-H522): > 100 µM (inactive); GI50 (OVCAR-3): 97.9 µM (inactive); GI50 (OVCAR-4): > 100 µM (inactive); GI50 (OVCAR-5): > 100 µM (inactive); GI50 (OVCAR-8): > 100 µM (inactive); GI50 (RXF 393): 42 µM (inactive); GI50 (SF-268): > 100 µM (inactive); GI50 (SF-295): > 100 µM (inactive); GI50 (SF-539): > 100 µM (inactive); GI50 (SK-MEL-28): > 100 µM (inactive); GI50 (SK-MEL-2): > 100 µM (inactive); GI50 (SK-MEL-5): > 100 µM (inactive); GI50 (SK-OV-3): > 100 µM (inactive); GI50 (SN12C): > 100 µM (inactive); GI50 (SNB-19): > 100 µM (inactive); GI50 (SNB-78): > 100 µM (inactive); GI50 (SR): 20.6 µM (inactive); GI50 (SW-620): > 100 µM (inactive); GI50 (TK-10): > 100 µM (inactive); GI50 (U-251): > 100 µM (inactive); GI50 (UACC-257): > 100 µM (inactive); GI50 (UACC-62): 55.6 µM (inactive); GI50 (UO-31): 78.5 µM (inactive); GI50 (XF498): > 100 µM (inactive)

Question: `CCc1ccccc1-n1c2nc(=O)n(C)c(=O)c-2nc2ccccc21` was tested. Which GI50 (786-0) did it give?
Answer: 7.21 µM (inactive)

Question: What about the GI50 (A498) of the same compound?
Answer: 15.9 µM (inactive)

Question: What about the GI50 (A549) of the same compound?
Answer: 8.24 µM (inactive)

Question: And the GI50 (ACHN)?
Answer: 3.92 µM (inactive)

Question: What about the GI50 (CAKI-1) of the same compound?
Answer: 20 µM (inactive)

Question: What about the GI50 (CCRF-CEM) of the same compound?
Answer: 11.2 µM (inactive)

Question: And the GI50 (COLO 205)?
Answer: 2.77 µM (inactive)

Question: And the GI50 (DLD-1)?
Answer: 16.3 µM (inactive)

Question: What about the GI50 (DMS-114) of the same compound?
Answer: 3.83 µM (inactive)

Question: What about the GI50 (DMS-273) of the same compound?
Answer: 8.71 µM (inactive)

Question: And the GI50 (EKVX)?
Answer: 12.1 µM (inactive)

Question: What about the GI50 (HCC 2998) of the same compound?
Answer: 11.1 µM (inactive)

Question: What about the GI50 (HCT-116) of the same compound?
Answer: 12.6 µM (inactive)

Question: What about the GI50 (HCT-15) of the same compound?
Answer: 10 µM

Question: What about the GI50 (HOP-18) of the same compound?
Answer: 11.9 µM (inactive)

Question: What about the GI50 (HOP-62) of the same compound?
Answer: 29.6 µM (inactive)

Question: What about the GI50 (HT-29) of the same compound?
Answer: 3.63 µM (inactive)

Question: And the GI50 (IGROV-1)?
Answer: 17.5 µM (inactive)

Question: And the GI50 (K562)?
Answer: 12.1 µM (inactive)

Question: And the GI50 (KM-20L2)?
Answer: 4.08 µM (inactive)

Question: What about the GI50 (KM12) of the same compound?
Answer: 10.8 µM (inactive)

Question: And the GI50 (LXFL 529)?
Answer: 11.1 µM (inactive)

Question: What about the GI50 (M14) of the same compound?
Answer: 6.59 µM (inactive)

Question: What about the GI50 (M19-MEL) of the same compound?
Answer: 1.85 µM (inactive)

Question: What about the GI50 (MOLT-4) of the same compound?
Answer: 13.2 µM (inactive)

Question: What about the GI50 (Malme-3M) of the same compound?
Answer: 5.7 µM (inactive)

Question: What about the GI50 (NCI-H226) of the same compound?
Answer: 18.4 µM (inactive)

Question: What about the GI50 (NCI-H23) of the same compound?
Answer: 4.03 µM (inactive)

Question: And the GI50 (NCI-H460)?
Answer: 4.55 µM (inactive)

Question: What about the GI50 (NCI-H522) of the same compound?
Answer: 13.6 µM (inactive)

Question: And the GI50 (OVCAR-3)?
Answer: 2.49 µM (inactive)

Question: And the GI50 (OVCAR-4)?
Answer: 4.89 µM (inactive)

Question: What about the GI50 (OVCAR-5) of the same compound?
Answer: 20 µM (inactive)

Question: And the GI50 (OVCAR-8)?
Answer: 5.96 µM (inactive)

Question: And the GI50 (RPMI-8226)?
Answer: 12.6 µM (inactive)

Question: And the GI50 (RXF 393)?
Answer: 13.7 µM (inactive)

Question: And the GI50 (SF-268)?
Answer: 11 µM (inactive)

Question: What about the GI50 (SF-295) of the same compound?
Answer: 11.5 µM (inactive)

Question: What about the GI50 (SF-539) of the same compound?
Answer: 14.1 µM (inactive)

Question: And the GI50 (SK-MEL-2)?
Answer: 17.4 µM (inactive)

Question: And the GI50 (SK-MEL-5)?
Answer: 4.29 µM (inactive)

Question: What about the GI50 (SK-OV-3) of the same compound?
Answer: 40.2 µM (inactive)

Question: And the GI50 (SN12C)?
Answer: 13.5 µM (inactive)

Question: What about the GI50 (SNB-19) of the same compound?
Answer: 10.8 µM (inactive)

Question: And the GI50 (SNB-75)?
Answer: 14.2 µM (inactive)

Question: And the GI50 (SNB-78)?
Answer: 16.9 µM (inactive)

Question: What about the GI50 (SW-620) of the same compound?
Answer: 13.8 µM (inactive)

Question: And the GI50 (TK-10)?
Answer: 8.95 µM (inactive)

Question: What about the GI50 (U-251) of the same compound?
Answer: 16 µM (inactive)

Question: What about the GI50 (UACC-257) of the same compound?
Answer: 5.11 µM (inactive)

Question: And the GI50 (UACC-62)?
Answer: 2.2 µM (inactive)

Question: And the GI50 (UO-31)?
Answer: 21.5 µM (inactive)

Question: What about the GI50 (XF498) of the same compound?
Answer: 10.3 µM (inactive)

From ChEMBL document CHEMBL1201862, “PubChem BioAssay data set” (2004)
